Experimental data: patent publication US6288091A, “Antiherpes virus compounds and methods for their preparation and use” (Boehringer Ingelheim Ltd., priority 1999, dated 2001)
Where two headings read alike, the source gives them in different places.

System: HCMV (strain AD169)
Test: Inhibition of HCMV replication, plaque reduction assay (PRA, Hs-68 cells)
Assay type: cell-based, Human Cytomegalovirus (HCMV)
Conditions: read-out: PRA CMV EC50
Experimental: C) Inhibition of Human Cytomegalovirus (HCMV) Replication
The effect of compounds on the replication of HCMV has been measured by using an ELISA-based assay (ELISA) and a plaque reduction assay (PRA).
Hs-68 cells (ATCC # CRL 1635) were seeded in 12-well plates at 83,000 cells/well in 1 mL of DMEM medium (Gibco Canada Inc.) supplemented with 10% fetal bovine serum (FBS, Gibco Canada Inc.). The plates were incubated for 3 days at 37° to allow the cells to reach 80-90% confluency prior to the assay.
The medium was removed from the cells by aspiration. The cells were then infected with approximately 50 PFU of HCMV (strain AD169, ATCC VR-538) in DMEM medium supplemented with 5% inactivated FBS (assay medium). The virus was allowed to adsorb to cells for 2 h at 37°. Following viral adsorption, the medium was removed from the wells by aspiration. The cells were then incubated with or without 1 mL of appropriate concentrations of test reagent in assay medium. After 4 days of incubation at 37°, the medium was exchanged with fresh medium containing test compound and 4 days later the cells were fixed with 1% aqueous formaldehyde and stained with a 2% crystal violet solution in 20% ethanol in water. Microscopic plaques were counted using a stereomicroscope. Drug effects were calculated as a percent reduction in the number of plaques in the presence of each drug concentration compared to the number observed in the absence of drug. Ganciclovir was used as a positive control in all experiments.
The EC50 values obtained according to this assay for certain thiazolyl derivatives of this invention are listed in the following tables under the heading PRA CMV.

[1] = Human betaherpesvirus 5, AD169, Hs68, Group 1 Table 4 entries
[2] = Human betaherpesvirus 5, AD169, Hs68, Group 2 Table 1 entries
[3] = Human betaherpesvirus 5, AD169, Hs68, Group 1 Table 3 entries
[4] = Human betaherpesvirus 5, AD169, Hs68, Group 1 Table 2 entries

SMILES | EC50 [2] [nM] | EC50 [3] [nM] | other results
CC(C)(C)OC(=O)Nc1nc(-c2ccc(NC(=O)CCN(Cc3ccccc3)Cc3ccccc3)cc2)cs1 [Example 1] |  |  | EC50 [1]: 1600 nM
CC(C)(C)NC(=O)Nc1nc(-c2ccc(NC(=O)CCN(Cc3ccccc3)Cc3ccccc3)cc2)cs1 [Example 2] |  |  | EC50 [1]: 1500 nM
Nc1nc(-c2ccc(NC(=O)Nc3nccs3)cc2)cs1 [Example 18] | > 56000 |  | 
Nc1nc(-c2ccc(NC(=O)NCCc3c[nH]c4ccccc34)cc2)cs1 [Example 19] | 12000 |  | 
Cc1cc(C)nc(SCC(=O)N(CC(=O)Nc2ccc(-c3csc(NC(=O)OC(C)(C)C)n3)cc2)Cc2ccccc2)n1 [Example 21] |  | 1200 | 
C[C@H](c1ccccc1)N(CC(=O)Nc1ccc(-c2csc(NC(=O)OC(C)(C)C)n2)cc1)C(=O)C1CCCCC1 [Example 22] |  | 1300 | 
C[C@H](c1ccccc1)N(CC(=O)Nc1ccc(-c2csc(NC(=O)OC(C)(C)C)n2)cc1)C(=O)Cc1ccccn1 [Example 23] |  | 2800 | 
C[C@H](c1ccccc1)N(CC(=O)Nc1ccc(-c2csc(NC(=O)OC(C)(C)C)n2)cc1)C(=O)c1ccncc1 [Example 24] |  | 3700 | 
C[C@@H](c1ccccc1)N(CC(=O)Nc1ccc(-c2csc(NC(=O)OC(C)(C)C)n2)cc1)C(=O)Cc1ccccn1 [Example 25] |  | 2700 | 
CC(=O)Nc1nc(-c2ccc(NC(=O)CN(C(=O)C3CCCCC3)[C@H](C)c3ccccc3)cc2)cs1 [Example 26] |  | 15000 | 
Nc1nc(-c2ccc(NC(=O)CCN(Cc3ccccc3)Cc3ccccn3)cc2)cs1 [Example 26] |  |  | EC50 [4]: 14000 nM
Nc1nc(-c2ccc(NC(=O)CCN(CCN3CCCC3)Cc3ccccc3)cc2)cs1 [Example 27] |  |  | EC50 [4]: 15000 nM
CN(CCc1ccncc1)C(=O)Nc1ccc(-c2csc(NC(=O)OC(C)(C)C)n2)cc1 [Example 29] | 3900 |  | 
Nc1nc(-c2ccc(NC(=O)CCN(Cc3ccccc3)Cc3cccnc3)cc2)cs1 [Example 29] |  |  | EC50 [4]: 14000 nM
CCCCN(C)C(=O)Nc1ccc(-c2csc(NC(=O)OC(C)(C)C)n2)cc1 [Example 30] | 2200 |  | 
Nc1nc(-c2ccc(NC(=O)CCN(Cc3ccccc3)Cc3ccccc3O)cc2)cs1 [Example 30] |  |  | EC50 [4]: 13000 nM
CCCCN(CC)C(=O)Nc1ccc(-c2csc(NC(=O)OC(C)(C)C)n2)cc1 [Example 31] | 2000 |  | 
CCCCN(CCO)C(=O)Nc1ccc(-c2csc(NC(=O)OC(C)(C)C)n2)cc1 [Example 32] | 2000 |  | 
CCCCN(CC#N)C(=O)Nc1ccc(-c2csc(NC(=O)OC(C)(C)C)n2)cc1 [Example 33] | 2400 |  | 
CCCCNc1nc(-c2ccc(NC(=O)N(CCCC)CCCC)cc2)cs1 [Example 34] | 10000 |  | 
